Measured values reported in patent publication US9335326B2, “Compositions and methods for characterizing a myopathy” (The Johns Hopkins University, priority 2010, dated 2016).

Experiments:
HeLa cells = assay: Immunoprecipitation of 200-kd and 100-kd autoantigens from radiolabeled lysates of mevinolin-treated HeLa cells with patient serum; assay type: cell-based; conditions: HeLa cells pretreated for 24 hours with 10 pM mevinolin versus vehicle (DMSO) alone; FIG. 5A
Protocol: Given the strong association of statin use with the development of these anti-200/100-kd autoantibodies, HeLa cells were labelled with ^35S-methionine/cysteine after pretreatment for 24 hours with either 10 pM mevinolin or vehicle (DMSO) alone. To validate the protein equivalence of these lysates, immunoprecipitations were performed using antibodies against Mi-2 or PM-Scl. As anticipated, equal amounts of Mi-2 and the 5 protein components of the PM-Scl complex were detected in each lysate type.
Serum samples collected from each patient were stored at −80° C. HeLa cells cultured using standard procedures were radiolabeled for two hours with 100 μCi/ml ^35S-methionine and cysteine (MP Biomedicals, Solon, Ohio) in methionine-free and cysteine-free medium. The cells were subsequently lysed in buffer A (50 mM Tris pH 7.4, 150 mM NaCl, […], 0.5% Nonidet P40, 0.5% sodium deoxycholate, 0.1% sodium dodecyl sulfate (SDS), and a protease inhibitor cocktail). Each 10-cm dish was lysed in 1 ml buffer A and was used for 10 immunoprecipitations. Immunoprecipitations were performed by adding 1 μl of patient sera to 100 μl radiolabeled lysate and bringing the volume to 1 ml with buffer B (1% Nonidet P40, 20 mM Tris pH 7.4, 150 mM NaCl, 1 mM EDTA, and a protease inhibitor cocktail) and rotating the mix for one hour at 4° C. […]

[1] = tested on: anti-200/100 autoantibody-positive patients; assay: Treatment response (objective improvement in strength) of anti-200/100 autoantibody-positive patients with necrotizing myopathy; assay type: in vivo, human
Source text: Medication regimens and treatment responses (based on objective improvements in strength) were variable. The clinical characteristics of the 16 anti-200/100 autoantibody-positive patients are available. […] Six (43%) of the 14 patients experienced a relapse when immunosuppressive medication was tapered or withdrawn. Seven […] of the 14 patients are currently undergoing tapering of their immunosuppressive medications and have not experienced a relapse to date. Only 1 patient had complete tapering of immunosuppressive medications without experiencing a relapse of weakness.
Two hundred twenty-five patients with banked sera, muscle biopsy specimens available for review, and a myopathy as defined by proximal muscle weakness, elevated creatine kinase (CK)levels, myopathic electromyography (EMG) findings, muscle edema on magnetic resonance imaging (MRI), and/or features of myopathy on muscle biopsy were enrolled in a longitudinal study, approved by the Johns Hopkins Institutional Review Board, from March 2007 through December 2008. […]

[2] = tested on: human anti-HMGCR antibodies; assay: Competition immunoprecipitation: patient sera preincubated with unlabeled C-terminal HMGCR, then IP of full-length IVTT HMGCR; assay type: binding; conditions: anti-HMGCR-positive sera preincubated with increasing concentrations of unlabeled C-terminal HMGCR; FIG. 7A
Source text: HMG-CoA reductase is a membrane protein with a small extracellular domain, seven membrane-spanning domains, and an intracellular catalytic domain. To define the region(s) of the protein recognized by sera from patients with anti-HMGCR antibodies, 35S-methionine-labeled full-length HMGCR protein, an N-terminal fragment including the extracellular and membrane-spanning domains (aa 1-377 of SEQ ID NO: 1), and a C-terminal fragment including the intracellular portion of the molecule (aa 340-888 of SEQ ID NO: 1) were synthesized. Serum from anti-HMGCR-positive patients consistently immunoprecipitated full-length HMGCR and the C-terminal fragment, but not the N-terminal fragment (FIG. 6). When anti-HMGCR-positive sera were preincubated with increasing concentrations of unlabeled C-terminal HMGCR prior to immunoprecipitation of 35S-methionine-labeled full-length HMGCR protein, immunoprecipitation was abolished (FIG. 7A).
DNA encoding full-length human HMG-CoA reductase was purchased from Invitrogen (Carlsbad, Calif.). […]
One microliter of each patient serum was preincubated (30 minutes at 4° C. in 50 μl) with the catalytic domain of human HMG-CoA reductase (aa 426-888 of SEQ ID NO: 1) expressed as a fusion protein with glutathione S-transferase (hereinafter referred to as “C-terminal HMG-CoA reductase”; Sigma). […]

CC[C@H](C)C(=O)O[C@H]1C[C@@H](C)C=C2C=C[C@H](C)[C@H](CC[C@@H]3C[C@@H](O)CC(=O)O3)[C@H]21 [mevinolin]
increased levels of both the 200-kd and the 100-kd protein immunoprecipitated (HeLa cells): 3 fold

Rituximab: immunosuppressant drug
benefit as adjunct therapy ([1]; added to prednisone and azathioprine or methotrexate): helpful adjuncts

C[C@]12C=CC(=O)C=C1CC[C@@H]1[C@@H]2C(=O)C[C@@]2(C)[C@H]1CC[C@]2(O)C(=O)CO [prednisone]
initial response to prednisone ([1]; most patients, combination immunosuppressive therapy was required): very modest initial response

B1: C-terminal HMGCR: catalytic domain of human HMG-CoA reductase (aa 426-888 of SEQ ID NO: 1) expressed as a fusion protein with glutathione S-transferase (Sigma) (protein, UniProt P04035 426-888, looked up, fragment)
chain: SSVLVTQEPEIELPREPRPNEECLQILGNAEKGAKFLSDAEIIQLVNAKHIPAYKLETLMETHERGVSIRRQLLSKKLSEPSSLQYLPYRDYNYSLVMGACCENVIGYMPIPVGVAGPLCLDEKEFQVPMATTEGCLVASTNRGCRAIGLGGGASSRVLADGMTRGPVVRLPRACDSAEVKAWLETSEGFAVIKEAFDSTSRFARLQKLHTSIAGRNLYIRFQSRSGDAMGMNMISKGTEKALSKLHEYFPEMQILAVSGNYCTDKKPAAINWIEGRGKSVVCEAVIPAKVVREVLKTTTEAMIEVNINKNLVGSAMAGSIGGYNAHAANIVTAIYIACGQDAAQNVGSSNCITLMEASGPTNEDLYISCTMPSIEIGTVGGGTNLLPQQACLQMLGVQGACKDNPGENARQLARIVCGTVMAGELSLMAALAAGHLVKSHMIHNRSKINLQDLQGACTKKTA
modifications: GST fusion
immunoprecipitation of 35S-methionine-labeled full-length HMGCR protein [2]: abolished
